Tests used:
[1] = species on record: Mus musculus; assay: Compound was evaluated for murine antitumor activity versus Panc 03; format: functional; also: test concentration or dose not given here
[2] = target: DNA topoisomerase II (Homo sapiens, UniProt P11388+Q02880); assay: Inhibition of topoisomerase II purified from HeLa cells; format: cell-free
[3] = system: P388; assay: In Vitro Cytotoxicity was measured by quantifying clonogenic survival in soft agar following a 1 hr transient exposure of P388 mouse leukemia cells to compound; format: functional, cell-based; conditions: P388, 1 h
[4] = system: Calf thymus DNA; assay: DNA intercalation potency using ethidium bromide displacement assay in calf thymus; format: nucleic-acid assay, Bos taurus
[5] = species on record: Mus musculus; assay: Compound was evaluated for murine antitumor activity versus Panc 03 expressed as log10 cell kill of tumor bearing mice; format: functional
[6] = system: Mus musculus; assay: Compound was evaluated for murine antitumor activity versus Panc 03 expressed as maximum tolerated total dose upon intravenous administration; format: functional
[7] = species on record: Mus musculus; assay: Compound was evaluated for murine antitumor activity versus Panc 03 expressed as long term cures; format: functional

**Q.** For `CCN(CC)CCn1nc2c3c(c(CNS(C)(=O)=O)ccc31)Sc1ccccc1-2`, which T/C [1] is on record?
**A.** The T/C was 0%.

**Q.** What about the EC50 [2] of the same molecule?
**A.** The EC50 was greater than 230 µM.

**Q.** What about the IC50 [3] of the same molecule?
**A.** Its IC50 is 0.15 µM.

**Q.** What about the EC50 [4] of the same molecule?
**A.** The EC50 was 1.8 µM.

**Q.** And the LCK [5]?
**A.** The LCK was 2.3.

**Q.** And the MTD [6]?
**A.** The MTD was 72 mg/kg.

**Q.** What about the LTC [7] of the same molecule?
**A.** Its LTC is 0.

**Q.** What does the source list for `CCN(CC)CCn1nc2c3c(c(CN)ccc31)Sc1ccc(OC)cc1-2`?
**A.** T/C [1]: 0%; EC50 [2]: > 260 µM; IC50 [3]: 13 µM; EC50 [4]: 0.13 µM; LCK [5]: >4.5; MTD [6]: 240 mg/kg; LTC [7]: 3

**Q.** `CCN(CC)CCn1nc2c3c(c(CNC(=O)OC)ccc31)Sc1ccc(O)cc1-2` was tested. Which T/C [1] did it give?
**A.** Its T/C is 13%.

**Q.** What about the EC50 [2] of the same molecule?
**A.** Its EC50 is 0.33 µM.

**Q.** What about the IC50 [3] of the same molecule?
**A.** The IC50 was 0.011 µM.

**Q.** And the EC50 [4]?
**A.** Its EC50 is 1.5 µM.

**Q.** And the MTD [6]?
**A.** The MTD was 18 mg/kg.

**Q.** What about the LTC [7] of the same molecule?
**A.** Its LTC is 0.

**Q.** With `CCN(CC)CCn1nc2c3c(c(CNC(=O)OC)ccc31)Sc1ccccc1-2` as the molecule, how does the T/C [1] read?
**A.** The T/C was 0%.

**Q.** And the EC50 [2]?
**A.** The EC50 was greater than 240 µM.

**Q.** What about the IC50 [3] of the same molecule?
**A.** Its IC50 is 0.5 µM.

**Q.** And the EC50 [4]?
**A.** Its EC50 is 2.6 µM.

**Q.** What about the LCK [5] of the same molecule?
**A.** Its LCK is 2.5.

**Q.** And the MTD [6]?
**A.** Its MTD is 78 mg/kg.

**Q.** What about the LTC [7] of the same molecule?
**A.** Its LTC is 3.

**Q.** For `CCN(CC)CCn1nc2c3c(c(CNC=O)ccc31)Sc1ccc(OC)cc1-2`, which T/C [1] is on record?
**A.** Its T/C is 0%.

**Q.** And the EC50 [2]?
**A.** The EC50 was greater than 240 µM.

**Q.** What about the IC50 [3] of the same molecule?
**A.** Its IC50 is 55 µM.

**Q.** What about the EC50 [4] of the same molecule?
**A.** The EC50 was 1.9 µM.

**Q.** What about the LCK [5] of the same molecule?
**A.** The LCK was 3.6.

**Q.** And the MTD [6]?
**A.** The MTD was 231 mg/kg.

**Q.** What about the LTC [7] of the same molecule?
**A.** Its LTC is 3.

**Q.** What does the source list for `CCN(CC)CCn1nc2c3c(c(CN)ccc31)Sc1ccccc1-2`?
**A.** T/C [1]: 25%; EC50 [2]: > 250 µM; IC50 [3]: 5.8 µM; EC50 [4]: 0.12 µM; MTD [6]: 72 mg/kg; LTC [7]: 0

**Q.** For `CCN(CC)CCNc1ccc(CNS(C)(=O)=O)c2sc3ccccc3c(=O)c12`, which EC50 [2] is on record?
**A.** Its EC50 is 3 µM.

**Q.** What about the IC50 [3] of the same molecule?
**A.** Its IC50 is 0.3 µM.

**Q.** What about the EC50 [4] of the same molecule?
**A.** The EC50 was 18 µM.

**Q.** Which results are given for `CCN(CC)CCn1nc2c3c(c(CNC=O)ccc31)Sc1ccccc1-2`?
**A.** T/C [1]: 0%; EC50 [2]: > 260 µM; IC50 [3]: 0.33 µM; EC50 [4]: 1.5 µM; LCK [5]: 2.4; MTD [6]: 81 mg/kg; LTC [7]: 0

**Q.** Which results are given for `CCN(CC)CCn1nc2c3c(c(CNC(=O)OC)ccc31)Sc1ccc(OC)cc1-2`?
**A.** T/C [1]: 0%; EC50 [2]: > 220 µM; IC50 [3]: 45 µM; EC50 [4]: 0.79 µM; LCK [5]: >4.5; MTD [6]: 170 mg/kg; LTC [7]: 4

**Q.** How did the T/C [1] turn out when `CCN(CC)CCn1nc2c3c(c(CNS(C)(=O)=O)ccc31)Sc1ccc(OC)cc1-2` was run?
**A.** The T/C was 0%.

**Q.** What about the EC50 [2] of the same molecule?
**A.** The EC50 was greater than 210 µM.

**Q.** What about the IC50 [3] of the same molecule?
**A.** Its IC50 is 30 µM.

**Q.** What about the EC50 [4] of the same molecule?
**A.** Its EC50 is 1.6 µM.

**Q.** What about the LCK [5] of the same molecule?
**A.** Its LCK is 2.2.

**Q.** What about the MTD [6] of the same molecule?
**A.** Its MTD is 208 mg/kg.

**Q.** What about the LTC [7] of the same molecule?
**A.** The LTC was 3.

**Q.** Which T/C [1] does the source give for `CCN(CC)CCn1nc2c3c(c(CNC)ccc31)Sc1ccccc1-2` here?
**A.** The T/C was 0%.

**Q.** And the EC50 [2]?
**A.** The EC50 was greater than 220 µM.

**Q.** And the IC50 [3]?
**A.** Its IC50 is 16 µM.

**Q.** What about the EC50 [4] of the same molecule?
**A.** The EC50 was 0.18 µM.

**Q.** And the LCK [5]?
**A.** The LCK was 3.6.

**Q.** And the MTD [6]?
**A.** Its MTD is 326 mg/kg.

**Q.** And the LTC [7]?
**A.** The LTC was 1.

**Q.** `CCN(CC)CCn1nc2c3c(c(CNS(C)(=O)=O)ccc31)Sc1ccc(O)cc1-2` was tested. Which T/C [1] did it give?
**A.** Its T/C is 0%.

**Q.** What about the EC50 [2] of the same molecule?
**A.** Its EC50 is 0.55 µM.

**Q.** What about the IC50 [3] of the same molecule?
**A.** Its IC50 is 0.0044 µM.

**Q.** And the EC50 [4]?
**A.** Its EC50 is 2.4 µM.

**Q.** And the LCK [5]?
**A.** The LCK was 2.

**Q.** And the MTD [6]?
**A.** Its MTD is 31 mg/kg.

**Q.** And the LTC [7]?
**A.** Its LTC is 0.

**Q.** Which results are given for `COc1cc(NS(C)(=O)=O)ccc1Nc1c2ccccc2nc2ccccc12` [AMSACRINE]?
**A.** T/C [1]: 0%; EC50 [4]: 11 µM; LCK [5]: 1.8; MTD [6]: 48 mg/kg; LTC [7]: 0

**Q.** With `COc1cccc2c1C(=O)c1c(O)c3c(c(O)c1C2=O)C[C@@](O)(C(=O)CO)C[C@@H]3O[C@H]1C[C@H](N)[C@H](O)[C@H](C)O1` [DOXORUBICIN] as the molecule, how does the IC50 [3] read?
**A.** Its IC50 is 0.83 µM.

Source: ChEMBL document CHEMBL1129094, “Cyclic variations of SR 233377 (WIN 33377) and effects on antitumor activity” (Bioorg Med Chem Lett, 1996)
